Test results published in patent publication US11680082B2, “Conjugates of montelukast and peptides” (ENLITISA (SHANGHAI) PHARMACEUTICAL CO., LTD, priority 2018, dated 2023).
Non-standard residues stand in square brackets, D forms with d. No end group written: not given here. Hyp = O=C(O)[C@@H]1C[C@@H](O)CN1

Experiments:
[1] = system: xylene induced ear swelling; assay: Mouse ear swelling model I (xylene); assay type: in vivo, BALB/c mice; details: xylene on right ear, topical treatment, 40 minutes; (right ear weight−left ear weight)/left ear weight
Protocol: The mice were randomly divided into 7 groups as described in Table 1 below, with 5 mice in each group
The left ear of each mouse was used as autologous control. 20 μL of xylene (Shanghai Aladdin Bio-Chem Technology Co., Ltd., Shanghai, China) was applied to the right ear of each mouse, both inside and outside. The ear started to swell in about 4 minutes. Then, 0.08 g of each study treatments or vehicles were applied to the right ears in each group. The mice were put back into their cages.
Vehicle-1 in Table 1 below is the cream base without active ingredients. Vehicle-2 in Table 1 below is the gel base without active ingredients.
The mice were sacrificed by cervical dislocation after 40 minutes. The left and right ears were cut off. A skin pouch (Electron Microscopy Sciences, Hatfield, Pa., USA) with a diameter of 8 mm was used to take a piece of the ear from the same site of both ears.

diabetic skin wound [2] = assay: Diabetic wound model II; assay type: in vivo, db/db mice (C57BL/KsJ-db/db)
Protocol: A similar experiment with essentially the same protocol to that described in Example 7 above was carried out on 8 to 12 week-old male db/db mice (C57BL/KsJ-db/db) with a body weight of 35-45 g/mouse (Changzhou Cvens Experimental Animal Co. Ltd.).
Different concentrations of Compound A and Compound 1 (“A” and “1” respectively, as indicated in the Table 5 below) were prepared in substantially the same way as described in Examples 6 and 7 above.
Different drugs were administrated topically at 50 μL/wound, once daily from Day 0 to Day 12, as show in Table 5 below.
The model group was given same amount of normal saline. There were 8 mice in each group. 4 mice were in the control group. The skin pieces taken during wound creation were used as the samples at Day 7 for the control group.
Histological specimens were analyzed as described in Example 7 above, except that the collagen deposition score criterion for the Masson stained sample were as follows. A comparison was made with normal tissue. No clear blue staining was given 0 points; blue fiber appearing in a scattered pattern was scored as 1 points; if more blue fiber appeared, this was scored as 2 points, and a diffuse blue colour was given 3 points.

diabetic skin wound [3] = assay: Diabetic wound model I; assay type: in vivo, db/db mice (C57BL/KsJ-db/db); details: histology
Protocol: A similar experiment with essentially the same protocol to that described in Example 6 above was carried out on 8 to 12 week-old male db/db mice (C57BL/KsJ-db/db), with a body weight of 35-45 g/mouse (Changzhou Cvens Experimental Animal Co. Ltd.).
An EMS skin biopsy punch with a 18 mm diameter was used to make wounds.
Different drugs were administrated topically at 50 μL/wound, once daily from Day 0 to Day 12. The model group was given same amount of normal saline.
Photographs were taken for each wound every other day from Day 0. Photos were scanned into a computer, and wound areas calculated using ImageJ image analysis software (National Institute of Health, USA).
The unhealed wound area was expressed as a percentage of the original wound area: At/A0×100%, where A0 and At refer to the initial area at Day 0 and the wound area at the date of measurement (time t), respectively.
Histological specimens were analyzed and skin regeneration, fibroblast proliferation, collagen regeneration scores (Masson score) and inflammation scores were estimated as follows.
The HE and Masson stained slices were observed under an optical microscope and were scored (1, 2 or 3 points) according to the following criteria. […]

[4] = system: phenol red excretion in trachea; assay: Expectorant experiment, phenol red excretion method; assay type: in vivo, mice; details: Positive control, 0.15 g/kg intragastric, 5 days
Protocol: 50 Mice were randomly divided into 5 groups according to body weight: Normal saline, negative control group, ammonium chloride positive control group and high, medium and low dose of test drug (either Compound A, above, or Compound E, below). 10 mice in each group, 5 males and 5 females.
Compound A was administered via atomization inhalation (0.15 mL/min) for 1 min, once daily for 5 days and the positive control drug was administered by intragastric administration for 5 days.
Half an hour after the last administration of Compound A, 5% phenol red solution was injected into the abdominal cavity. The mice were sacrificed after a further half an hour. The skin of the neck was removed and the trachea from the thyroid cartilage to the bifurcation was separated, soaked it in 5% sodium bicarbonate solution with constant shaking. The sodium bicarbonate solution was used to detect the phenol red content.
The absorbance at 558 nm was detected by spectrophotometry (721G Spectrophotometer, Shanghai Jingke, Shanghai, China). The optical density value was used to calculate the phenol red content In the trachea by reference to the phenol red standard curve. The results of each group and the negative control group were tested for significant t-test.

Ala-Lys-Pro-Ser-Tyr-Hyp-Hyp-Thr-Tyr-Lys (AKPSY[Hyp][Hyp]TYK; not fully specified; printed as Ala-Lys-Pro-Ser-Tyr-Hyp-Hyp-Thr-Tyr-Lys) [Compound 1]
Swelling rate [1]: 61.5% | ratio of remaining wound area of initial wound (Mean) (diabetic skin wound [2]; high dose (H), D1): 1.000 | ratio of remaining wound area of initial wound (Mean) (diabetic skin wound [2]; high dose (H), D2): 1.051 | ratio of remaining wound area of initial wound (Mean) (diabetic skin wound [2]; high dose (H), D4): 0.821 | ratio of remaining wound area of initial wound (Mean) (diabetic skin wound [2]; high dose (H), D6): 0.718 | ratio of remaining wound area of initial wound (Mean) (diabetic skin wound [2]; high dose (H), D8): 0.486 | ratio of remaining wound area of initial wound (Mean) (diabetic skin wound [2]; high dose (H), D10): 0.478 | ratio of remaining wound area of initial wound (Mean) (diabetic skin wound [2]; high dose (H), D12): 0.368 | ratio of remaining wound area of initial wound (Mean) (diabetic skin wound [2]; low dose (L), D1): 1.000 | ratio of remaining wound area of initial wound (Mean) (diabetic skin wound [2]; low dose (L), D2): 0.860 | ratio of remaining wound area of initial wound (Mean) (diabetic skin wound [2]; low dose (L), D4): 0.753 | ratio of remaining wound area of initial wound (Mean) (diabetic skin wound [2]; low dose (L), D6): 0.593 | ratio of remaining wound area of initial wound (Mean) (diabetic skin wound [2]; low dose (L), D8): 0.467 | ratio of remaining wound area of initial wound (Mean) (diabetic skin wound [2]; low dose (L), D10): 0.433 | ratio of remaining wound area of initial wound (Mean) (diabetic skin wound [2]; low dose (L), D12): 0.306 | wound healing (diabetic skin wound [2]; low dose, earlier stages after wound infliction): prompted wound healing in the earlier stages | ratio of remaining wound area of initial wound (Mean) (diabetic skin wound [2]; medium dose (M), D1): 1.000 | ratio of remaining wound area of initial wound (Mean) (diabetic skin wound [2]; medium dose (M), D2): 0.991 | ratio of remaining wound area of initial wound (Mean) (diabetic skin wound [2]; medium dose (M), D4): 0.895 | ratio of remaining wound area of initial wound (Mean) (diabetic skin wound [2]; medium dose (M), D6): 0.786 | ratio of remaining wound area of initial wound (Mean) (diabetic skin wound [2]; medium dose (M), D8): 0.552 | ratio of remaining wound area of initial wound (Mean) (diabetic skin wound [2]; medium dose (M), D10): 0.490 | ratio of remaining wound area of initial wound (Mean) (diabetic skin wound [2]; medium dose (M), D12): 0.344 | Fibroblast proliferation score (diabetic skin wound [3]): could promote | Skin regeneration score (diabetic skin wound [3]): could promote the skin regeneration

Cl.N [NH4Cl, ammonium chloride]
Phenol red concentration [4]: 10.335 ± 0.337 µg/mL
